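Growth conditions: 96-well plates. Treatment: test compound, 48 hours, 5 concentrations. Analysis: linear interpolation between bracketing concentrations; unreached endpoints set to highest concentration. Definition used: TGI = concentration required for complete inhibition of growth.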
Experiments:
Assay in all cases: NCI tumour cell line growth inhibition, 48 h
[1] = test system: A498 renal
[2] = test system: A549 NSCLC
[3] = test system: ACHN renal
[4] = test system: CAKI-1 renal
[5] = test system: CCRF-CEM leukemia
[6] = test system: COLO 205 colon
[7] = test system: DLD-1 colon
[8] = test system: DMS 114 small cell lung
[9] = test system: DMS 273 small cell lung
[10] = test system: EKVX NSCLC
[11] = test system: HCC-2998 colon
[12] = test system: HCT-116 colon
[13] = test system: HCT-15 colon
[14] = test system: HL-60(TB) leukemia
[15] = test system: HOP-62 NSCLC
[16] = test system: HOP-92 NSCLC
[17] = test system: HT29 colon
[18] = test system: IGROV1 ovarian
[19] = test system: K-562 leukemia
[20] = test system: KM12 colon
[21] = test system: KM20L2 colon
[22] = test system: LOX IMVI melanoma
[23] = test system: M14 melanoma
[24] = test system: M19-MEL melanoma
[25] = test system: MOLT-4 leukemia
[26] = test system: NCI-H226 lung
[27] = test system: NCI-H23 lung
[28] = test system: NCI-H460 lung
[29] = test system: NCI-H522 lung
[30] = test system: OVCAR-4 ovarian
[31] = test system: OVCAR-5 ovarian
[32] = test system: OVCAR-8 ovarian
[33] = test system: RPMI-8226 leukemia
[34] = test system: RXF 393 renal
[35] = test system: RXF-631 renal
[36] = test system: SF-268 CNS
[37] = test system: SF-295 CNS
[38] = test system: SF-539 CNS
[39] = test system: SK-MEL-2 melanoma
[40] = test system: SK-MEL-28 melanoma
[41] = test system: SK-MEL-5 melanoma
[42] = test system: SK-OV-3 ovarian
[43] = test system: SN12C renal
[44] = test system: SNB-19 CNS
[45] = test system: SNB-75 CNS
[46] = test system: SNB-78 CNS
[47] = test system: SR leukemia
[48] = test system: SW-620 colon
[49] = test system: TK-10 renal
[50] = test system: U251 CNS
[51] = test system: UACC-257 melanoma
[52] = test system: UACC-62 melanoma
[53] = test system: UO-31 renal
[54] = test system: XF 498 CNS
[55] = test system: 786-0 renal
[56] = test system: LXFL 529 NSCLC
[57] = test system: MALME-3M melanoma
[58] = test system: OVCAR-3 ovarian

CC1CC(c2ccc([N+](=O)[O-])cc2)=Nc2ccccc2S1=O (stereo unspecified)
TGI [1]: 43.2 µM
TGI [2]: 41.4 µM
TGI [3]: 40.6 µM
TGI [4]: 61.2 µM
TGI [5]: 42.2 µM
TGI [6]: 33.5 µM
TGI [7]: 33.6 µM
TGI [8]: 33.2 µM
TGI [9]: 42.7 µM
TGI [10]: 60.9 µM
TGI [11]: 36.8 µM
TGI [12]: 4.72 µM
TGI [13]: 28.1 µM
TGI [14]: 50.5 µM
TGI [15]: 75 µM
TGI [16]: > 100 µM
TGI [17]: 27.2 µM
TGI [18]: 31.8 µM
TGI [19]: 75 µM
TGI [20]: 26.7 µM
TGI [21]: 29.9 µM
TGI [22]: 25.6 µM
TGI [23]: 35 µM
TGI [24]: 30.8 µM
TGI [25]: > 100 µM
TGI [26]: 80.4 µM
TGI [27]: 37.2 µM
TGI [28]: 34.3 µM
TGI [29]: 25.9 µM
TGI [30]: 62.3 µM
TGI [31]: 70 µM
TGI [32]: 32.9 µM
TGI [33]: 31.9 µM
TGI [34]: 23.6 µM
TGI [35]: 52.6 µM
TGI [36]: 44.1 µM
TGI [37]: 55.2 µM
TGI [38]: 45 µM
TGI [39]: > 100 µM
TGI [40]: 43.6 µM
TGI [41]: 37.1 µM
TGI [42]: 64.9 µM
TGI [43]: > 100 µM
TGI [44]: 38.5 µM
TGI [45]: 53.2 µM
TGI [46]: > 100 µM
TGI [47]: 76.6 µM
TGI [48]: 29.3 µM
TGI [49]: 91.6 µM
TGI [50]: 27.7 µM
TGI [51]: 42.1 µM
TGI [52]: 38.8 µM
TGI [53]: 26.3 µM
TGI [54]: 95.1 µM

N#CC1([N+](=O)[O-])C=C1c1ccccc1 (stereo unspecified)
TGI [55]: > 100 µM
TGI [2]: > 100 µM
TGI [3]: > 100 µM
TGI [4]: > 100 µM
TGI [5]: 72.2 µM
TGI [6]: > 100 µM
TGI [7]: > 100 µM
TGI [8]: > 100 µM
TGI [9]: > 100 µM
TGI [10]: > 100 µM
TGI [12]: > 100 µM
TGI [13]: > 100 µM
TGI [14]: 46.3 µM
TGI [15]: > 100 µM
TGI [17]: > 100 µM
TGI [18]: > 100 µM
TGI [19]: 71.5 µM
TGI [20]: > 100 µM
TGI [21]: > 100 µM
TGI [22]: > 100 µM
TGI [56]: > 100 µM
TGI [23]: > 100 µM
TGI [24]: > 100 µM
TGI [57]: > 100 µM
TGI [25]: > 100 µM
TGI [26]: > 100 µM
TGI [27]: > 100 µM
TGI [28]: > 100 µM
TGI [29]: 56.6 µM
TGI [58]: > 100 µM
TGI [30]: > 100 µM
TGI [31]: > 100 µM
TGI [32]: > 100 µM
TGI [33]: 49.5 µM
TGI [35]: > 100 µM
TGI [36]: > 100 µM
TGI [37]: > 100 µM
TGI [38]: > 100 µM
TGI [39]: > 100 µM
TGI [41]: > 100 µM
TGI [42]: > 100 µM
TGI [43]: > 100 µM
TGI [44]: > 100 µM
TGI [46]: > 100 µM
TGI [47]: 70.3 µM
TGI [48]: 41.6 µM
TGI [49]: > 100 µM
TGI [50]: > 100 µM
TGI [51]: > 100 µM
TGI [52]: 66.3 µM
TGI [53]: > 100 µM

CCNC(CCCC(NCC)P(=O)(O)O)P(=O)(O)O (stereo unspecified)
TGI [1]: > 100 µM
TGI [2]: > 100 µM
TGI [5]: > 100 µM
TGI [12]: > 100 µM
TGI [14]: > 100 µM
TGI [15]: > 100 µM
TGI [16]: > 100 µM
TGI [17]: > 100 µM
TGI [18]: > 100 µM
TGI [20]: > 100 µM
TGI [21]: > 100 µM
TGI [23]: > 100 µM
TGI [24]: > 100 µM
TGI [25]: > 100 µM
TGI [26]: > 100 µM
TGI [27]: > 100 µM
TGI [28]: > 100 µM
TGI [29]: > 100 µM
TGI [31]: > 100 µM
TGI [32]: > 100 µM
TGI [34]: > 100 µM
TGI [35]: > 100 µM
TGI [37]: > 100 µM
TGI [40]: > 100 µM
TGI [42]: > 100 µM
TGI [44]: > 100 µM
TGI [46]: > 100 µM
TGI [47]: > 100 µM
TGI [49]: > 100 µM
TGI [50]: > 100 µM
TGI [51]: > 100 µM
TGI [52]: > 100 µM
TGI [53]: > 100 µM

CC(=O)OC1(C#N)CC2OC1C1NC21 (stereo unspecified)
TGI [55]: > 100 µM
TGI [1]: > 100 µM
TGI [2]: > 100 µM
TGI [3]: > 100 µM
TGI [4]: > 100 µM
TGI [5]: > 100 µM
TGI [6]: > 100 µM
TGI [7]: > 100 µM
TGI [8]: > 100 µM
TGI [10]: > 100 µM
TGI [11]: > 100 µM
TGI [12]: > 100 µM
TGI [13]: > 100 µM
TGI [14]: > 100 µM
TGI [15]: > 100 µM
TGI [16]: > 100 µM
TGI [18]: > 100 µM
TGI [19]: > 100 µM
TGI [21]: > 100 µM
TGI [22]: > 100 µM
TGI [56]: > 100 µM
TGI [23]: > 100 µM
TGI [24]: > 100 µM
TGI [57]: > 100 µM
TGI [25]: > 100 µM
TGI [26]: > 100 µM
TGI [27]: > 100 µM
TGI [28]: > 100 µM
TGI [29]: > 100 µM
TGI [30]: > 100 µM
TGI [31]: > 100 µM
TGI [32]: > 100 µM
TGI [33]: > 100 µM
TGI [34]: > 100 µM
TGI [35]: > 100 µM
TGI [36]: > 100 µM
TGI [38]: > 100 µM
TGI [39]: > 100 µM
TGI [40]: > 100 µM
TGI [41]: > 100 µM
TGI [42]: > 100 µM
TGI [43]: > 100 µM
TGI [44]: > 100 µM
TGI [45]: > 100 µM
TGI [46]: > 100 µM
TGI [48]: > 100 µM
TGI [49]: > 100 µM
TGI [50]: > 100 µM
TGI [52]: > 100 µM
TGI [53]: > 100 µM
TGI [54]: > 100 µM

OCC(O)C(OC1OC(CO)C(O)C(O)C1O)c1nn(-c2ccc(Cl)cc2)c2nc3cc(Cl)ccc3nc12 (stereo unspecified)
TGI [55]: > 100 µM
TGI [1]: > 100 µM
TGI [3]: > 100 µM
TGI [5]: > 100 µM
TGI [7]: > 100 µM
TGI [8]: > 100 µM
TGI [10]: > 100 µM
TGI [11]: > 100 µM
TGI [12]: > 100 µM
TGI [13]: > 100 µM
TGI [15]: > 100 µM
TGI [17]: > 100 µM
TGI [19]: > 100 µM
TGI [20]: > 100 µM
TGI [21]: > 100 µM
TGI [22]: > 100 µM
TGI [56]: > 100 µM
TGI [23]: > 100 µM
TGI [24]: > 100 µM
TGI [57]: > 100 µM
TGI [25]: > 100 µM
TGI [27]: > 100 µM
TGI [28]: > 100 µM
TGI [29]: > 100 µM
TGI [58]: > 100 µM
TGI [30]: > 100 µM
TGI [31]: > 100 µM
TGI [32]: > 100 µM
TGI [33]: > 100 µM
TGI [34]: > 100 µM
TGI [35]: > 100 µM
TGI [36]: > 100 µM
TGI [37]: > 100 µM
TGI [38]: > 100 µM
TGI [40]: > 100 µM
TGI [42]: > 100 µM
TGI [43]: > 100 µM
TGI [44]: > 100 µM
TGI [45]: > 100 µM
TGI [46]: > 100 µM
TGI [47]: > 100 µM
TGI [49]: > 100 µM
TGI [50]: > 100 µM
TGI [51]: > 100 µM
TGI [52]: > 100 µM
TGI [53]: > 100 µM
TGI [54]: > 100 µM

Source: PubChem BioAssay (NCI)
